Measurements published in ChEMBL document CHEMBL1287800, “Pyridylmethylthio derivatives as VEGF inhibitors. Part 1” (Bioorg Med Chem Lett, 2010).

System: HUVEC
Test: Inhibition of VEGF-induced HUVEC proliferation treated 1 hr before VEGF challenge measured 3 days by WST-8 assay
Type: functional, cell-based
Settings: Homo sapiens

## Clc1ccc(Nc2nnc(Cc3ccncc3)c3ccccc23)cc1 [VATALANIB]
  IC50: 33 nM
